Experimental data taken from US20110053947A1, “Arylchalcogenoarylalkyl-substituted imidazolidine-2,4-diones, process for preparation thereof, medicaments comprising these compounds and use thereof” (SANOFI-AVENTIS, priority 2008, published 2011).
Where a name gives a salt, the structure may show the parent alone.

These compounds were tested against T1, cannabinoid 1 receptor (hCB1R) (Homo sapiens, UniProt P21554) (assay: In vitro functional assay with recombinant cells (FLIPR), CB1). Conditions: recombinant HEK293 cells expressing CB1 and G-protein; intracellular Ca2+ change after reference agonist, 20 min preincubation; read-out: hCB1R: FLIPR; IC50.
T1 construct: expressed in transfected cells; host or cells: HEK293
T1 sequence (P21554 whole entry): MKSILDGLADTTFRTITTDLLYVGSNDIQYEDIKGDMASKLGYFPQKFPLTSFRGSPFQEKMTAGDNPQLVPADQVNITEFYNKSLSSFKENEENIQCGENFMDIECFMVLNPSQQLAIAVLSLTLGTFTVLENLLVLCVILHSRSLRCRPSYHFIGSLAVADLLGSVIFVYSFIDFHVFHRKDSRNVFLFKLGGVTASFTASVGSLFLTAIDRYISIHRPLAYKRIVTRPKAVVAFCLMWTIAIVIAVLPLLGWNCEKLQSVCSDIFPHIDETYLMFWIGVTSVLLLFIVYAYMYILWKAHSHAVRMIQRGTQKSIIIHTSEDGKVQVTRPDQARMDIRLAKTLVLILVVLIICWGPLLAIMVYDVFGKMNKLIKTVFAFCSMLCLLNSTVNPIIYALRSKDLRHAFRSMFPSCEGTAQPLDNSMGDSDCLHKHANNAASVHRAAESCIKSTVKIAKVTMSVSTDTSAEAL
Format: cell-based
Method: In vitro functional assays with recombinant cells:
Function-testing assays were performed by means of the FLIPR technique (“Fluorometric Imaging Plate Reader”, Molecular Devices Corp.).
To this end, ligand-induced changes in the intracellular concentration of Ca^2+ in recombinant HEK293 cells, which expressed both a cannabinoid receptor (CB1 or CB2) and G-protein Galphal6, were determined. For the studies, cells were sown into 96-well microtiter plates (60 000 cells/well) and left to grow overnight. The medium was removed and the cells were incubated in buffer which contained the fluorescent dye Fluo-4. After this loading with dye, the cells were washed, test substance was added dissolved in buffer, the mixture was incubated for 20 minutes, a known cannabinoid receptor agonist as a reference agonist was added in buffer and, finally, the changes in the intracellular Ca^2+ concentration were measured in the FLIPR unit.
Results were presented as the percentage change relative to the control (0%: analogous experiment without test substance and without reference agonist, i.e. only with buffer; 100%: analogous experiment without test substance, but with reference agonist in excess), and used to calculate dose/action curves, and IC50 values were determined.
The values of the functional assay compared to the cannabinoid 1 receptor including illustrative selectivities compared to the cannabinoid 2 receptor can be taken from table 1 which follows.
For `CC1(C)C(=O)N(c2ccc(F)c(C(F)(F)F)c2)C(=O)N1Cc1ccc(F)cc1NC(=O)Nc1ccc(S(=O)(=O)O)cc1` [Example 25, 4-(3-{5-fluoro-2-[3-(4-fluoro-3-trifluoromethylphenyl)-5,5-dimethyl-2,4-dioxoimidazolidin-1-ylmethyl]phenyl}ureido)benzenesulfonic acid], the IC50 was 0.058 µM. Work on `CC1(C)C(=O)N(c2ccc(C#N)c(C3CC3)c2)C(=O)N1Cc1cc(Cl)ccc1NC(=O)Nc1ccc(S(C)(=O)=O)cc1` [Example 67, 1-{4-chloro-2-[3-(4-cyano-3-cyclopropylphenyl)-5,5-dimethyl-2,4-dioxoimidazolidin-1-ylmethyl]phenyl}-3-(4-methanesulfonylphenyl)urea] yielded an IC50 of 0.006 µM. For `COc1cc(CN2C(=O)N(c3ccc(F)c(C(F)(F)F)c3)C(=O)C2(C)C)c(NC(=O)Nc2ccc(S(N)(=O)=O)cc2)cc1OC` [Example 68, 4-(3-{2-[3-(4-fluoro-3-trifluoromethylphenyl)-5,5-dimethyl-2,4-dioxoimidazolidin-1-ylmethyl]-4,5-dimethoxyphenyl}ureido)benzenesulfonamide], the IC50 was 0.039 µM. `CC1(C)C(=O)N(c2ccc(F)c(C(F)(F)F)c2)C(=O)N1Cc1ccc(F)cc1NC(=O)Nc1ccc(C(=O)NS(C)(=O)=O)cc1` [Example 61, N-[4-(3-{5-Fluoro-2-[3-(4-fluoro-3-trifluoromethylphenyl)-5,5-dimethyl-2,4-dioxoimidazolidin-1-ylmethyl]phenyl}ureido)benzoyl]methanesulfonamide] gave an IC50 of 0.016 µM. Work on `CC1(C)C(=O)N(c2ccc(C#N)c(C3CC3)c2)C(=O)N1Cc1ccc(F)cc1NC(=O)Nc1ccc(S(N)(=O)=O)cc1` [Example 28, 4-(3-{2-[3-(4-Cyano-3-cyclopropylphenyl)-5,5-dimethyl-2,4-dioxoimidazolidin-1-ylmethyl]-5-fluorophenyl}ureido)benzenesulfonamide] yielded an IC50 of 0.009 µM. For `CSc1ccc(NC(=O)Nc2cc(F)ccc2CN2C(=O)N(c3ccc(C#N)c(C4CC4)c3)C(=O)C2(C)C)cc1` [Example 30.1, 1-{2-[3-(4-cyano-3-cyclopropylphenyl)-5,5-dimethyl-2,4-dioxoimidazolidin-1-ylmethyl]-5-fluorophenyl}-3-(4-methylsulfanylphenyl)urea], the IC50 was 0.012 µM. In the case of `CC1(C)C(=O)N(c2ccc(C#N)c(C3CC3)c2)C(=O)N1Cc1ccc(F)cc1NC(=O)Nc1ccc(S(=O)(=O)O)cc1` [Example 29, 4-(3-{2-[3-(4-cyano-3-cyclopropylphenyl)-5,5-dimethyl-2,4-dioxo-imidazolidin-1-ylmethyl]-5-fluorophenyl}ureido)benzenesulfonic acid], the IC50 is reported as 0.069 µM. Compound `CC1(C)C(=O)N(c2ccc(C#N)c(C(F)(F)F)c2)C(=O)N1Cc1ccc(F)cc1NC(=O)Nc1ccc(Cl)nc1` [Example 20, 1-(6-chloropyridin-3-yl)-3-{2-[3-(4-cyano-3-trifluoromethylphenyl)-5,5-dimethyl-2,4-dioxoimidazolidin-1-ylmethyl]-5-fluorophenyl}urea] has an IC50 of 0.016 µM. With `CC1(C)C(=O)N(c2ccc(C#N)c(C(F)(F)F)c2)C(=O)N1Cc1ccc(F)cc1NC(=O)Nc1ccc(O)cc1` [Example 41, 1-{2-[3-(4-Cyano-3-trifluoromethylphenyl)-5,5-dimethyl-2,4-dioxo-imidazolidin-1-ylmethyl]-5-fluorophenyl}-3-(4-hydroxyphenyl)urea] the IC50 was 0.004 µM. `CC1(C)C(=O)N(c2ccc(F)c(C(F)(F)F)c2)C(=O)N1Cc1ccc(F)cc1NC(=O)Nc1ccc(C(=O)O)cc1` [Example 60, 4-(3-{5-fluoro-2-[3-(4-fluoro-3-trifluoromethylphenyl)-5,5-dimethyl-2,4-dioxoimidazolidin-1-ylmethyl]phenyl}-ureido)benzoic acid] was tested, and the IC50 was 0.053 µM. For `CC1(C)C(=O)N(c2ccc(C#N)c(C(F)(F)F)c2)C(=O)N1Cc1ccc(F)cc1NC(=O)Nc1ccc(SCC(=O)O)cc1` [Example 50, [4-(3-{2-[3-(4-Cyano-3-trifluoromethylphenyl)-5,5-dimethyl-2,4-dioxoimidazolidin-1-ylmethyl]-5-fluorophenyl}ureido)phenylsulfanyl]acetic acid], the IC50 was 0.013 µM. With `CC1(C)C(=O)N(c2ccc(C#N)c(C(F)(F)F)c2)C(=O)N1Cc1ccccc1NC(=O)Nc1ccc(C(N)=O)cc1` [Example 16, 4-(3-{2-[3-(4-Cyano-3-trifluoromethylphenyl)-5,5-dimethyl-2,4-dioxoimidazolidin-1-ylmethyl]phenyl}ureido)benzamide] the IC50 was 0.012 µM. `COc1ccc(CN2C(=O)N(c3ccc(F)c(C(F)(F)F)c3)C(=O)C2(C)C)c(NC(=O)Nc2ccc(S(N)(=O)=O)cc2)c1` [Example 70, 4-(3-{2-[3-(4-fluoro-3-trifluoromethylphenyl)-5,5-dimethyl-2,4-dioxoimidazolidin-1-ylmethyl]-5-methoxyphenyl}ureido)benzenesulfonamide] was tested, and the IC50 was 0.014 µM. In the case of `CC1(C)C(=O)N(c2ccc(F)c(C(F)(F)F)c2)C(=O)N1Cc1ccc(F)cc1NC(=O)Nc1ccc(C(=O)NS(=O)(=O)C(F)(F)F)cc1` [Example 62, C,C,C-trifluoro-N-[4-(3-{5-fluoro-2-[3-(4-fluoro-3-trifluoromethylphenyl)-5,5-dimethyl-2,4-dioxoimidazolidin-1-ylmethyl]phenyl}ureido)benzoyl]methanesulfonamide], the IC50 is reported as 0.046 µM. Work on `CC1(C)C(=O)N(c2ccc(F)c(C(F)(F)F)c2)C(=O)N1Cc1ccc(F)cc1NC(=O)Nc1ccc(S(=O)(=O)O)cc1` [Example 26, Sodium salt of 4-(3-{5-fluoro-2-[3-(4-fluoro-3-trifluoromethylphenyl)-5,5-dimethyl-2,4-dioxoimidazolidin-1-ylmethyl]phenyl}ureido)benzenesulfonic acid] yielded an IC50 of 0.066 µM. `COC(=O)c1ccc(NC(=O)Nc2cc(F)ccc2CN2C(=O)N(c3ccc(C#N)c(C(F)(F)F)c3)C(=O)C2(C)C)cc1` [Example 17, Methyl 4-(3-{2-[3-(4-cyano-3-trifluoromethylphenyl)-5,5-dimethyl-2,4-dioxoimidazolidin-1-ylmethyl]-5-fluorophenyl}ureido)benzoate] showed an IC50 of 0.01 µM. Compound `CC1(C)C(=O)N(c2ccc(F)c(C(F)(F)F)c2)C(=O)N1Cc1ccc(Cl)cc1NC(=O)Nc1ccc(S(N)(=O)=O)cc1` [Example 69, 4-(3-{5-chloro-2-[3-(4-fluoro-3-trifluoromethylphenyl)-5,5-dimethyl-2,4-dioxoimidazolidin-1-ylmethyl]phenyl}ureido)benzenesulfonamide] has an IC50 of 0.011 µM. `CC1(C)C(=O)N(c2ccc(C#N)c(C3CC3)c2)C(=O)N1Cc1ccc(F)cc1NC(=O)Nc1ccc(S(=O)(=O)CC(=O)O)cc1` [Example 47, [4-(3-{2-[3-(4-Cyano-3-cyclopropylphenyl)-5,5-dimethyl-2,4-dioxoimidazolidin-1-ylmethyl]-5-fluorophenyl}ureido)benzenesulfonyl]acetic acid] gave an IC50 of 0.025 µM. Compound `CC1(C)C(=O)N(c2ccc(F)c(C(F)(F)F)c2)C(=O)N1Cc1ccc(F)cc1NC(=O)Nc1ccc(C(=O)NS(=O)(=O)Cc2ccccc2)cc1` [Example 64, N-[4-(3-{5-fluoro-2-[3-(4-fluoro-3-trifluoromethylphenyl)-5,5-dimethyl-2,4-dioxoimidazolidin-1-ylmethyl]phenyl}ureido)benzoyl]-C-phenylmethanesulfonamide] has an IC50 of 0.039 µM.
